Experimental data reported in PMC8510601, “Discovery of benzamide-hydroxypyridinone hybrids as potent multi-targeting agents for the treatment of Alzheimer's disease” (Journal of Enzyme Inhibition and Medicinal Chemistry, 2021).

Legend:
MAO-B = biological target: T1, MAO-B (Homo sapiens, UniProt P27338); assay: Human MAO-B inhibition assay; type: biochemical; settings: for inhibition at 0.1 µM: 100 nM, read-out: Inhibitory rate ± SEM (%, 100 nM); for inhibition at 1 µM: read-out: Inhibitory rate ± SEM (%, 1 μM); for IC50: ± SEM, read-out: IC50 against MAO-B
T1 sequence (P27338 1-520): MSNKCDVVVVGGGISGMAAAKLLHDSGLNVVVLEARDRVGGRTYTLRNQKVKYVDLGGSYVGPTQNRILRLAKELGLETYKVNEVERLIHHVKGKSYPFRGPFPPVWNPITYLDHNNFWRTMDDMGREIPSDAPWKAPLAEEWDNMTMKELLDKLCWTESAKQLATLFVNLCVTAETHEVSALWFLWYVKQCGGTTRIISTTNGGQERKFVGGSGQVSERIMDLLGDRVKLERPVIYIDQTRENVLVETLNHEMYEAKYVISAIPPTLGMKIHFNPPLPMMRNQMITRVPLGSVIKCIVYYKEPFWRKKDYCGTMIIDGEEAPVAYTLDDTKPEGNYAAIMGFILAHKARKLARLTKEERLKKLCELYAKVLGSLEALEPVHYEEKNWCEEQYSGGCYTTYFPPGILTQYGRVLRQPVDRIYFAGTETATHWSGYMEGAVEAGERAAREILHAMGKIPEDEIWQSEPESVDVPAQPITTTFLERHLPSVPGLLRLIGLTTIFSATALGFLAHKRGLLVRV

[1] = pKa determination by spectrophotometric titration; settings: 0.1 M KCl aqueous solution, pH range 2.0–10.5, 25 °C
[2] = Iron-chelating activity test: affinity constants for Fe3+ and pFe3+; settings: for Log β2 / Log β3: KCl (0.1 M): DMSO = 3:2 (v/v); for Log β1: KCl (0.1 M): DMSO = 9:1 (v/v); for pFe^3+: pH 7.4, [Fe3+]total = 10^−6 M, [ligand]total = 10^−5 M, calculated from pKa and log β measured in KCl/DMSO

| SMILES | inhibition at 0.1 µM (MAO-B) [%] | inhibition at 1 µM (MAO-B) [%] | IC50 (MAO-B) [nM] | melting point [°C] | pKa ([1]; KCl (0.1 M)) | pKa ([1]; pKa2, KCl (0.1 M)) | Log β2 [2] | Log β3 [2] | Log β1 [2] | pFe^3+ [2] |
| --- | --- | --- | --- | --- | --- | --- | --- | --- | --- | --- |
| Cc1c(O)c(=O)ccn1CCNC(=O)c1ccccc1 [Compound 8a] | > 50 | 77.65 ± 0.6 | 79 ± 0.3 | 211 to 213 | 3.43 | 9.81 | 26.35 | 35.83 | 14.93 | 19.14 |
| COc1ccccc1C(=O)NCCn1ccc(=O)c(O)c1C [Compound 8b] | 38.8 ± 1.16 | 59.9 ± 1.57 |  |  | 3.41 | 9.88 | 26.20 | 35.45 | 14.64 | 18.56 |
| COc1cccc(C(=O)NCCn2ccc(=O)c(O)c2C)c1 [Compound 8c] | 31.9 ± 0.85 | 59.97 ± 0.14 |  | 218 to 220 | 3.37 | 9.83 | 26.17 | 35.55 | 14.68 | 18.80 |
| COc1ccc(C(=O)NCCn2ccc(=O)c(O)c2C)cc1 [Compound 8d] | 36.02 ± 0.15 | 63 ± 3.9 | 210.8 ± 1.21 | 241 to 243 | 3.34 | 9.82 | 25.95 | 35.25 | 14.52 | 18.53 |
| Cc1c(O)c(=O)ccn1CCNC(=O)c1ccccc1OCc1ccccc1 [Compound 8e] | 33.1 ± 1.43 | 51.5 ± 1.06 |  | 180 to 182 | 3.38 | 9.99 | 26.46 | 35.64 | 14.66 | 18.43 |
| Cc1c(O)c(=O)ccn1CCNC(=O)c1cccc(OCc2ccccc2)c1 [Compound 8f] | 37.9 ± 1.22 | 54.57 ± 0.51 |  | 178 to 180 | 3.38 | 9.92 | 26.85 | 35.33 | 14.75 | 18.38 |
| CCOc1ccc(C(=O)NCCn2ccc(=O)c(O)c2C)cc1 [Compound 8h] | 48.1 ± 1.57 | 66.75 ± 0.34 | 119 ± 2.76 | 246 to 248 | 3.27 | 9.8 | 26.06 | 35.33 | 14.67 | 18.67 |
| CCCOc1ccc(C(=O)NCCn2ccc(=O)c(O)c2C)cc1 [Compound 8i] | > 50 | 53.41 ± 0.31 | 89.1 ± 10.1 | 214 to 243 | 3.41 | 9.84 | 25.98 | 35.18 | 14.56 | 18.40 |
| C#CCOc1ccc(C(=O)NCCn2ccc(=O)c(O)c2C)cc1 [Compound 8j] | 38.7 ± 0.94 | 58.6 ± 1.18 |  | 208 to 210 | 3.41 | 9.88 | 26.14 | 35.24 | 14.67 | 18.35 |
| Cc1c(O)c(=O)ccn1CCNC(=O)c1ccc(OCC2CCCCC2)cc1 [Compound 8k] | 39.5 ± 2.38 | 63.3 ± 0.92 | 189 ± 7.51 | 274 to 276 | 3.21 | 9.89 | 26.31 | 35.84 | 14.44 | 18.91 |
| Cc1c(O)c(=O)ccn1CCNC(=O)c1ccc(OCc2cccc(F)c2)cc1 [Compound 8l] | > 50 | > 80 | 96.4 ± 6.78 |  | 3.51 | 9.74 | 26.72 | 35.87 | 14.76 | 19.39 |
| Cc1c(O)c(=O)ccn1CCNC(=O)c1ccc(OCc2ccc(F)cc2)cc1 [Compound 8m] | > 50 | 70.9 ± 2.51 | 82.8 ± 0.8 | 254 to 256 | 3.62 | 9.76 | 26.77 | 35.31 | 15.03 | 18.81 |
